The text below walks through data of patent US20230181905A1, “Systems, Devices, and Methods for Enhancing the Neuroprotective Effects of Non-Invasive Gamma Stimulation with Pharmacological Agents” (Massachusetts Institute of Technology, priority 2021, published 2023).

One assay concerns vGLUT1. The assay can be described thus: vGLUT1 western blot and puncta, overall and within WFA. The class given is in vivo, mouse. To be noted: 5×FAD mice. From the text: It was reasoned that the increased WFA coverage and enhanced phase locking of neurons after these treatments are related. […] WFA has been predominantly observed around interneurons, specifically PV interneurons. vGLUT1 (Synaptic Systems, #1135 302), an excitatory synaptic marker, was labeled with WFA. It was observed that the overall vGLUT1 signal was higher after Plx3397+GENUS treatment in mice (ANOVA, F (3,22)=3,686, P=0.0273) (FIGS. 18A, 18B). WFA was 3D rendered and surface created and examined (vGLUT1) within WFA, and observed increased vGLUT1 within WFA (Nested ANOVA, F (3,29)=3.377, P=0.0493) (FIGS. 18A, 18C).
vGAT and vGLUT1 puncta: LSM 710, with a 40× objective, was used to acquire the images. The entire […] thickness of the slices was acquired in Z stacks—80 per image (step of 0.5 μm). The spot-count inbuilt function in Imarisx64 9.3 was used to count cells automatically.
These observations point to synaptic connectivity, PNN extracellular architecture, and myelination as biological processes that GENUS impacts to improve the outcomes in Plx3397 administered 5×FAD mice. To further validate this, additional biochemical analyses were performed. […]
The brain was perfused with PBS and fixed with 4% PFA. […] Signal intensities were quantified using ImageJ 1.46q and normalized to values of loading control.
A general note: Immunoblotting shows a protein as a band on a membrane.

The test system of assay [1] is excitatory neurons and interneurons of the visual cortex. The experiment in a line: In vivo electrophysiology: single unit spiking and LFP phase locking. Details: species or system mouse. On the procedure: Next, principal component analyses was performed using action potential properties, isolated single units, and further separated them into excitatory and interneurons (FIG. 15A).
Single units were manually isolated by drawing cluster boundaries around the 3D projection of the recorded spikes, presented in SpikeSort3D software (Neuralynx).
The relationship between spike firing times and LFP gamma phase was calculated by mean resultant length using the Circular Statistics Toolbox. Briefly, spikes were sorted and LFP traces were filtered using the continuous wavelet transform returning the instantaneous signal phase and amplitudes. Spike times were linearly interpolated to determine phase, with peaks and troughs of gamma defined as 0 and ±pi radians respectively. The resulting phase values were binned to generate firing probabilities, for each 20-degree interval. […] All analyses were performed using MATLAB.
Spikes: Single units were manually isolated by drawing cluster boundaries around the 3D projection of the recorded spikes, presented in SpikeSort3D software (Neuralynx).
Single unit—LFP phase locking: The relationship between spike spiking times and LFP gamma phase was calculated by mean resultant length using the Circular Statistics Toolbox MATLAB File Exchange Function.
Briefly, spikes were sorted and LFP traces were filtered using the continuous wavelet transform returning the instantaneous signal phase and amplitudes. Spike times were linearly interpolated to determine phase, with peaks and troughs of gamma defined as 0 and ±pi radians respectively. The resulting phase values were binned to generate spiking probabilities, for each 20-degree interval. […] All analyses were performed using MATLAB. All in vivo electrophysiological analyses were conducted in MATLAB (Mathworks, #R2019a) utilizing signal processing and image processing toolboxes.

Setting [2] is: Plx3397 treated 5×FAD mice, baseline.
Where [3] appears, read: Plx3397 treated 5×FAD mice, during acute 40 Hz entrainment.

Each structure is given as a SMILES string.

Consider `FC(F)(F)c1ccc(CNc2ccc(Cc3c[nH]c4ncc(Cl)cc34)cn2)cn1` [Plx3397, Pexidartinib], for which the “vGLUT1 level (western blot)” value with vGLUT1 (visual cortex, control 100±7.30) was determined as 130.1±10.05. Also, the “vGLUT1 synaptic puncta in the WFA of PV interneurons” value in the assay on vGLUT1 (controls 313.4±13.20) is given as 332.7±13.14 % of no treatment control. Moreover, the “overall mean spiking rate of E-neurons and I-neurons” value in assay [1] (5×FAD mice, Plx3397 diet 50 days vs control) was “no differences”. Moreover, in assay [1] (5×FAD mice, Plx3397 vs control), the “% of E-neurons and I-neurons phase-locked to 3-12 Hz theta oscillations” value is listed as “reduction”; the “percentage of E-neurons and I-neurons phase-locked to 30-50 Hz gamma oscillations” value is listed as “less phase-locked”; the “strength of phase-locked neurons to gamma oscillations” value is “without significant difference”; the “strength of theta phase-locking of neurons” value is on record as “increase”. In assay [1] (Plx3397 treated 5×FAD mice, acute 40 Hz entrainment, of the 47 I-neurons), the “I-neurons showing 40 Hz entrainment” value is given as 13 neurons. In assay [1] (setting [2]), the “percentage of I-neurons phase-locked to gamma” value worked out at 34.04% and the “percentage of gamma phase-locked E-neurons” value worked out at 35.64%. Moreover, in assay [1] (setting [3]), the “percentage of I-neurons phase-locked to gamma” value is recorded as 65.95% and the “percentage of gamma phase-locked E-neurons” value stood at 46.53%. Besides, in assay [1] (Plx3397 treated 5×FAD mice, during acute 40 Hz entrainment vs baseline), the “gamma phase-locking strength of E-neurons and I-neurons” value is “enhanced”.
